Experimental data as given in patent US12421242B2, “Substituted tetrahydropyrrolo-pyridinone compounds and their use in treating medical conditions” (Karuna Therapeutics, Inc., priority 2022, dated 2025).

Legend:
hM4 receptors = molecular target: T1, hM4 receptors (Homo sapiens, UniProt P08173); assay: Human M4 PAM pERK assay; assay type: cell-based; details: PAM mode
T1 construct: expressed in transfected cells; host or cells: CHO cells
T1 sequence (P08173 1-479): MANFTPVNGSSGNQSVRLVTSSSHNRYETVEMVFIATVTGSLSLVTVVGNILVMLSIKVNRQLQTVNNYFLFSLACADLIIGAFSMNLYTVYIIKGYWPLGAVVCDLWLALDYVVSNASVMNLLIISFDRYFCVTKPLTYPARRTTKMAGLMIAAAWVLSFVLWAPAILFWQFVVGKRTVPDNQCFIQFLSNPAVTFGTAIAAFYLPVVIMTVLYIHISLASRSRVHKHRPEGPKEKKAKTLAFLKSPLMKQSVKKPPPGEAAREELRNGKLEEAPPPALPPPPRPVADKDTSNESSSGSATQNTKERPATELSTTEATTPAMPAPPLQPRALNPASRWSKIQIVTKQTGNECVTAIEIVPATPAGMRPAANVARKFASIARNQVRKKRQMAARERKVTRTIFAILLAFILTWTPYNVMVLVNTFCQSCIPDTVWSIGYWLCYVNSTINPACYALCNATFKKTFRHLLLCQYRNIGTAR
Protocol: (§1) Chinese hamster ovary (CHO) cells expressing either hM4 or rM4 receptors were frozen in assay ready vials (5×10^6 cells/vial) after bulking-up in culture. The day before an assay, vial(s) were thawed and cells seeded in 384 well white proxiplates at 1000/well for hM4 cells and at 2000/well for rM4 cells, in 10 μL of growth media (Hams/F12 with glutamax and 10% FCS) and incubated overnight at 37° C./5% CO2.
(§2) On the following morning, the growth media was removed by ‘flicking out’ over a bin, patting the inverted plate onto tissue, and then replacing with 10 μL of wash media (Hams/F12 with glutamax and 8 mM HEPES, NB: serum free). Then, the wash media was removed in the same way and replaced with 8 μL/well of the serum free media. Plates were then re-incubated for a further 4 hours at 37° C./5% CO2.
(§3) Compounds for testing were solubilized to 10 mM in DMSO and compound addition plates, consisting of ten-point concentration response curves (CRC) in duplicate points (10 μM top concentration, […]), were prepared by acoustic dispensing and the compound management group.
(§4) After the 4-hour incubation in serum free media, a 4 μL aliquot of the 3× compound solution containing an EC20 of acetylcholine (10 nM final concentration) was added to the cell plate using a 384 well plate to plate transfer. Then, the plate lid was replaced, and the cells incubated for 5 mins at 37° C./5% CO2. Following this final incubation, all cellular processes were stopped by the addition of 4 μL/well of lysis and blocking buffer and plates were incubated for 30 minutes at RT on an orbital shaker (gentle setting). Then, a final addition of 4 μL/well of antibody detection mix, containing both the Europium-Cryptate (donor) and d2 (acceptor) tagged detection components, was added followed by a further 2-hour incubation at RT, and then the plate was read using a TR-FRET (time resolved fluorescence resonance energy transfer) based protocol.

rM4 receptors = molecular target: T2, rM4 receptors (Rattus norvegicus, UniProt P08485); assay: Rat M4 PAM pERK assay; assay type: cell-based; details: PAM mode
T2 construct: expressed in transfected cells; host or cells: CHO cells
T2 sequence (P08485 1-478): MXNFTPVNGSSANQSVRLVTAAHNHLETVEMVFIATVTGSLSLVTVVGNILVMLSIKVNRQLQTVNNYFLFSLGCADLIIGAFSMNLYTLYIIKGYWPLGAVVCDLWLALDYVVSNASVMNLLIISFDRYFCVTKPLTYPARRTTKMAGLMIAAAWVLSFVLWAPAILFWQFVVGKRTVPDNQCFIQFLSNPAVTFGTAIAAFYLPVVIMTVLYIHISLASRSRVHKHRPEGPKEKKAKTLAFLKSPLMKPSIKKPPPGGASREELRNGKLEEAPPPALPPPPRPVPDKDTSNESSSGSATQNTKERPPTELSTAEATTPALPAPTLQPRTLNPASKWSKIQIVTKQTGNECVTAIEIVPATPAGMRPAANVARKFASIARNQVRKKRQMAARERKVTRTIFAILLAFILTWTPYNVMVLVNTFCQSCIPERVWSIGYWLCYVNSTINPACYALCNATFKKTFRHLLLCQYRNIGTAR
Protocol: as §1, §2, §3, §4

Row | Structure (SMILES) | EC50 (hM4 receptors) [µM] | EC50 (rM4 receptors) [µM]
1 | Cc1cc(=O)n(C)c2c1C(C)N(C(=O)c1ccc3nc(C(F)(F)F)sc3c1)C2 (single isomer, unassigned) [Compound I-101] | 0.1 to 0.5 | > 2
2 | Cc1cc(=O)n(C)c2c1CN(C(=O)c1cnn(C)c1)C2C (single isomer, unassigned) [Compound I-107, 1,4,7-Trimethyl-6-(1-methyl-1H-pyrazole-4-carbonyl)-1,5,6,7-tetrahydro-2H-pyrrolo[3,4-b]pyridin-2-one] | > 2 | > 2
3 | Cc1c2c(n(C)c(=O)c1Cl)CN(C(=O)c1cnn(C)c1)C2 [Compound I-2] | < 0.1 | > 2
4 | Cc1c2c(n(C)c(=O)c1Cl)CN(C(=O)c1cn(C)cn1)C2 [Compound I-4] | 0.5 to 2 | > 2
5 | Cc1c2c(n(C)c(=O)c1Cl)CN(C(=O)c1cnn(CC(C)C)c1)C2 [Compound I-5] | 0.5 to 2 | > 2
6 | Cc1c2c(n(C)c(=O)c1Cl)CN(C(=O)c1ccc(C(C)(C)C)s1)C2 [Compound I-7] | 0.5 to 2 | > 2
7 | Cc1c2c(n(C)c(=O)c1Cl)CN(C(=O)c1cnn(C(C)C)c1)C2 [Compound I-10] | 0.1 to 0.5 | > 2
8 | Cc1c2c(n(C)c(=O)c1Cl)CN(C(=O)c1cn(C(F)(F)F)cn1)C2 [Compound I-15] | 0.1 to 0.5 | > 2
9 | Cc1c2c(n(C)c(=O)c1Cl)CN(C(=O)c1ccn(C(F)(F)F)n1)C2 [Compound I-16] | 0.1 to 0.5 | > 2
10 | Cc1c2c(n(C)c(=O)c1Cl)CN(C(=O)c1cnn(Cc3ccccc3)c1)C2 [Compound I-23] | 0.1 to 0.5 | 0.5 to 2
11 | Cc1c2c(n(C)c(=O)c1Cl)CN(C(=O)c1cn3c(n1)COCC3)C2 [Compound I-25] | 0.5 to 2 | > 2
12 | Cc1c2c(n(C)c(=O)c1Cl)CN(C(=O)c1cnn(CC3CC3)c1)C2 [Compound I-27] | 0.5 to 2 | > 2
13 | Cc1c2c(n(C)c(=O)c1Cl)CN(C(=O)c1ncc3ccccn13)C2 [Compound I-31] | > 2 | > 2
14 | Cc1c2c(n(C)c(=O)c1Cl)CN(C(=O)c1cn3c(n1)CCC3)C2 [Compound I-33] | 0.1 to 0.5 | > 2
15 | Cc1c2c(n(C)c(=O)c1Cl)CN(C(=O)c1cnc(CC(C)C)s1)C2 [Compound I-34] | 0.1 to 0.5 | 0.5 to 2
16 | Cc1c2c(n(C)c(=O)c1Cl)CN(C(=O)c1cnc(C3CCC3)s1)C2 [Compound I-35] | 0.1 to 0.5 | > 2
17 | Cc1c2c(n(C)c(=O)c1Cl)CN(C(=O)c1cnn3c1CCC3)C2 [Compound I-37] | > 2 | > 2
18 | COCc1ncc(C(=O)N2Cc3c(C)c(Cl)c(=O)n(C)c3C2)s1 [Compound I-38] | 0.1 to 0.5 | > 2
19 | Cc1c2c(n(C)c(=O)c1Cl)CN(C(=O)c1cnc(CC(F)(F)F)s1)C2 [Compound I-39] | 0.5 to 2 | > 2
20 | Cc1c2c(n(C)c(=O)c1Cl)CN(C(=O)c1ccc3nonc3c1)C2 [Compound I-43] | 0.1 to 0.5 | 0.5 to 2

Row | Structure (SMILES) | EC50 (hM4 receptors) [µM] | EC50 (rM4 receptors) [µM]
21 | Cc1c2c(n(C)c(=O)c1Cl)CN(C(=O)c1ccc3ncsc3c1)C2 [Compound I-46] | < 0.1 | 0.5 to 2
22 | Cc1c2c(n(C)c(=O)c1Cl)CN(C(=O)c1ccc3cncn3c1)C2 [Compound I-47] | < 0.1 | 0.5 to 2
23 | Cc1c2c(n(C)c(=O)c1Cl)CN(C(=O)c1ccc3c(c1)COC3)C2 [Compound I-50] | 0.1 to 0.5 | 0.1 to 0.5
24 | Cc1c2c(n(C)c(=O)c1Cl)CN(C(=O)c1ccc3nc(C4CCC4)sc3c1)C2 [Compound I-51, 3-Chloro-6-(2-cyclobutylbenzo[d]thiazole-6-carbonyl)-1,4-dimethyl-1,5,6,7-tetrahydro-2H-pyrrolo[3,4-b]pyridin-2-one] | < 0.1 | 0.1 to 0.5
25 | Cc1c2c(n(C)c(=O)c1Cl)CN(C(=O)c1cnn(CC3(C)COC3)c1)C2 [Compound I-53, 3-Chloro-1,4-dimethyl-6-(1-((3-methyloxetan-3-yl)methyl)-1H-pyrazole-4-carbonyl)-1,5,6,7-tetrahydro-2H-pyrrolo[3,4-b]pyridin-2-one] | > 2 | > 2
26 | Cc1c2c(n(C)c(=O)c1Cl)CN(C(=O)c1cnn(CC3COC3)c1)C2 [Compound I-54] | 0.1 to 0.5 | > 2
27 | Cc1c2c(n(C)c(=O)c1Cl)CN(C(=O)c1cnn(CC3CCCC3)c1)C2 [Compound I-55] | 0.1 to 0.5 | > 2
28 | Cc1c2c(n(C)c(=O)c1Cl)CN(C(=O)c1cnn(CC3CCOC3)c1)C2 (stereo not drawn) [Compound I-56] | > 2 | > 2
29 | Cc1c2c(n(C)c(=O)c1Cl)CN(C(=O)c1cnn(Cc3ccc(C(F)(F)F)nc3)c1)C2 [Compound I-57] | > 2 | > 2
30 | Cc1c2c(n(C)c(=O)c1Cl)CN(C(=O)c1cc(CC(F)(F)F)on1)C2 [Compound I-58, 3-Chloro-1,4-dimethyl-6-(5-(2,2,2-trifluoroethyl)isoxazole-3-carbonyl)-1,5,6,7-tetrahydro-2H-pyrrolo[3,4-b]pyridin-2-one] | 0.5 to 2 | > 2
31 | Cc1c2c(n(C)c(=O)c1Cl)CN(C(=O)c1cnn(Cc3cccnc3)c1)C2 [Compound I-59, 3-Chloro-1,4-dimethyl-6-(1-(pyridin-3-ylmethyl)-1H-pyrazole-4-carbonyl)-1,5,6,7-tetrahydro-2H-pyrrolo[3,4-b]pyridin-2-one] | 0.5 to 2 | > 2
32 | Cc1c2c(n(C)c(=O)c1Cl)CN(C(=O)c1cnn(Cc3ccncc3)c1)C2 [Compound I-60] | 0.1 to 0.5 | > 2
33 | Cc1c2c(n(C)c(=O)c1Cl)CN(C(=O)c1cnn(CC(F)(F)F)c1)C2 [Compound I-61] | 0.5 to 2 | > 2
34 | Cc1c2c(n(C)c(=O)c1Cl)CN(C(=O)c1cnc(CC3CC3(F)F)s1)C2 (stereo not drawn) [Compound I-65] | < 0.1 | 0.5 to 2
35 | Cc1c2c(n(C)c(=O)c1Cl)CN(C(=O)c1cc(C(F)(F)F)n(C)c1)C2 [Compound I-68, 3-Chloro-1,4-dimethyl-6-(1-methyl-5-(trifluoromethyl)-1H-pyrrole-3-carbonyl)-1,5,6,7-tetrahydro-2H-pyrrolo[3,4-b]pyridin-2-one] | < 0.1 | 0.1 to 0.5
36 | Cc1c2c(n(CC3CC3)c(=O)c1Cl)CN(C(=O)c1cnc(CC3CC3)s1)C2 [Compound I-69, 3-Chloro-1-(cyclopropylmethyl)-6-(2-(cyclopropylmethyl)thiazole-5-carbonyl)-4-methyl-1,5,6,7-tetrahydro-2H-pyrrolo[3,4-b]pyridin-2-one] | 0.1 to 0.5 | > 2
37 | Cc1c2c(n(CC3CC3)c(=O)c1Cl)CN(C(=O)c1ccc3nc(C4CCC4)sc3c1)C2 [Compound I-70] | 0.1 to 0.5 | 0.1 to 0.5
38 | Cc1c2c(n(C)c(=O)c1Cl)CN(C(=O)c1cnn(C(F)F)c1)[C@@H]2C [Compound I-77] | < 0.1 | 0.1 to 0.5
39 | Cc1c2c(n(C)c(=O)c1C)CN(C(=O)c1cnn(C(F)(F)F)c1)[C@@H]2C [Compound I-78, (R)-1,3,4,5-Tetramethyl-6-(1-(trifluoromethyl)-1H-pyrazole-4-carbonyl)-1,5,6,7-tetrahydro-2H-pyrrolo[3,4-b]pyridin-2-one] | < 0.1 | 0.1 to 0.5
